The values that follow come from patent publication US10077261B2, “Imidazolin-5-one derivative useful as FASN inhibitors for the treatment of cancer” (Janssen Pharmaceutica NV, priority 2012, dated 2018).

As a reminder, the inhibition is the drop in the measured response relative to a control, in per cent.

In experiment [1] the test system is A2780 ovarian cells. The experiment can be described thus: A2780 ovarian cell proliferation assay in lipid reduced medium, with palmitate (MTT). The settings on record: Homo sapiens, A2780, 96 h; read-out: pIC50 A2780 Ovarian Cell, With Palmitate (converted). It is filed as cell-based. The essentials: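 Seeded cells were switched next day to lipid-reduced serum, exposed to compound and 25 μM palmitate complexed with fatty-acid-free BSA, and incubated 96 h. Proliferation was then determined by MTT absorbance at 544 nm, with a best-fit curve of signal against concentration.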

Experiment [2] relates to LNCaP-Vancouver prostate cells. The experiment can be described thus: In vitro LNCaP Vancouver prostate cell proliferation assay in lipid reduced medium. To be noted: read-out: pIC50 LNCaP_Vancouver prostate cell (converted). Format: cell-based.
The target in experiment [3] is Fatty Acid Synthase Keto-reductase Domain (FASN KR) (Homo sapiens, UniProt P49327). Description: Fatty Acid Synthase keto-reductase domain (FASN KR) inhibition, NADPH oxidation at 340 nm.
Chain of Fatty Acid Synthase Keto-reductase Domain (FASN KR) (P49327 whole entry, the tested form may be a part): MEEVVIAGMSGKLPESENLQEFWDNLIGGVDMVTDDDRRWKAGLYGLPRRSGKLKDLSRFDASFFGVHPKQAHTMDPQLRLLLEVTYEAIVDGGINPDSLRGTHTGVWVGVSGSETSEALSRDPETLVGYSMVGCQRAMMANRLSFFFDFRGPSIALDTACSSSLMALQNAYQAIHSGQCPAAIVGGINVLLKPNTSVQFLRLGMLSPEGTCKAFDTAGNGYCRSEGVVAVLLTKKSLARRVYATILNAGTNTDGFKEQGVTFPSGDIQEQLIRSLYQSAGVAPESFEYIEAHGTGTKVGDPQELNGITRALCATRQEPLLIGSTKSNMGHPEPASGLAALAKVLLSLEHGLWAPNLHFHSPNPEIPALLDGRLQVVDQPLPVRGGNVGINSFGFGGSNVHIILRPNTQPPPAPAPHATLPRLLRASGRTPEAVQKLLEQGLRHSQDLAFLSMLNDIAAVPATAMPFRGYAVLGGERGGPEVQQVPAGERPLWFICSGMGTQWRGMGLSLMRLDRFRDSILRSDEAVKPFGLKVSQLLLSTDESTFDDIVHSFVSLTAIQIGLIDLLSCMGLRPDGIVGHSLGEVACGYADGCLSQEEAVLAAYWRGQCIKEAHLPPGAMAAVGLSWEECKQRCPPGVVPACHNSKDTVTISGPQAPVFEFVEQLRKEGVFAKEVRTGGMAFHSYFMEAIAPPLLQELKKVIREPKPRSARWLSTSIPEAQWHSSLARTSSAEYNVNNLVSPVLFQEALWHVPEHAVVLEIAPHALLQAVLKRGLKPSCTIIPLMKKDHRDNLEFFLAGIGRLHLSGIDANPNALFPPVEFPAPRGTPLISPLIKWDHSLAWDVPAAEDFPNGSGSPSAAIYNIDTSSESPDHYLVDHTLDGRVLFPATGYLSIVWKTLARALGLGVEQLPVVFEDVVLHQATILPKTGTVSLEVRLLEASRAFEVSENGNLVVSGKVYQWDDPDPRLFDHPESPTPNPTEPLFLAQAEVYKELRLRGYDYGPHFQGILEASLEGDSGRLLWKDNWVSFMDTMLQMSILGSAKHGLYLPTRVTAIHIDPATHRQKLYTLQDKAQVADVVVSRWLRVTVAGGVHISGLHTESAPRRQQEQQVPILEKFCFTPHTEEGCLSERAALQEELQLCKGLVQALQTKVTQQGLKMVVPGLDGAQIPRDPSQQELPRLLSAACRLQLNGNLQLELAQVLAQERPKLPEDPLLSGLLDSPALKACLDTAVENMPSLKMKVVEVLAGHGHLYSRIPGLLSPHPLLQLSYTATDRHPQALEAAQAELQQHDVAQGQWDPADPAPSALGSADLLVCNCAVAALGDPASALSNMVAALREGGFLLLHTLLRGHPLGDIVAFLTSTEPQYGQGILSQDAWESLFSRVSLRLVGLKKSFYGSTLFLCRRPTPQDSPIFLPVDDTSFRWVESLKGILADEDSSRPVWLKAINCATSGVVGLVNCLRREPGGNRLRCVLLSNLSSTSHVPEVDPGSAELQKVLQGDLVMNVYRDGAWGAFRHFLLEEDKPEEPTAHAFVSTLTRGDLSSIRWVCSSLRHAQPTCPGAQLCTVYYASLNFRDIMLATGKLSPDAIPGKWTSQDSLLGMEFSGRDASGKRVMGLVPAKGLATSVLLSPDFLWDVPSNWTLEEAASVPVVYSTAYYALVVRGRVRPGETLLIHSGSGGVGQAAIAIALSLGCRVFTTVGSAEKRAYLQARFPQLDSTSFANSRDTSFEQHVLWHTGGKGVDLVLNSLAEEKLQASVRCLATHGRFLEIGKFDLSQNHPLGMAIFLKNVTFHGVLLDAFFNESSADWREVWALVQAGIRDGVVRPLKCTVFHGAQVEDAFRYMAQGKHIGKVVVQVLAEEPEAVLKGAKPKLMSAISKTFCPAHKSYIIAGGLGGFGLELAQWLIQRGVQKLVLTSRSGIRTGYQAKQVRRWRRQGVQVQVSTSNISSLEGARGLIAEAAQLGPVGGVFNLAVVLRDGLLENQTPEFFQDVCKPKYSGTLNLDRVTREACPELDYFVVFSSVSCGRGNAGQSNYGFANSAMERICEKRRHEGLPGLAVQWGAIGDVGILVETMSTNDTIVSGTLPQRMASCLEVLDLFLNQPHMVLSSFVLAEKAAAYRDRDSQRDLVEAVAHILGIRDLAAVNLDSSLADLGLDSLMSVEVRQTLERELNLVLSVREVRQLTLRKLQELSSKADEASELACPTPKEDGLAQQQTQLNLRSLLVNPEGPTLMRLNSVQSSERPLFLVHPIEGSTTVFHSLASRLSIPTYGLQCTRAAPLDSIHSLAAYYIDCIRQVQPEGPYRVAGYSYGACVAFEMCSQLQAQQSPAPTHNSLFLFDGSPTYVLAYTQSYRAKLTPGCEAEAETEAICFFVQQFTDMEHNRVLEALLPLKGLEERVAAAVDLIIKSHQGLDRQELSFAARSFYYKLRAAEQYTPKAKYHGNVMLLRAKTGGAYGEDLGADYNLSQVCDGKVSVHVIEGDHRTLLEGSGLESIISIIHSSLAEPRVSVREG
Description: After 20 minutes incubation at room temperature the plate was measured again (T2).
The decrease in absorbance was calculated as (Absorbance before incubation T1)−(Absorbance following incubation T2).
A plot of Controlmin versus test compound concentration was fitted to a 4-parameter logistic curve using a non-linear least squares regression method.
Experiment [4] concerns A2780 ovarian cells. The experiment can be described thus: A2780 ovarian cell proliferation assay in lipid reduced medium, without palmitate (MTT). It is filed as cell-based. To be noted: Homo sapiens, A2780, 96 h; read-out: pIC50 A2780 Ovarian Cell, Without Palmitate (converted).
The test system of experiment [5] is PC-3M-Luc-C6 prostate cells. Description: In vitro PC-3M-Luc-C6 prostate cell proliferation assay in lipid reduced medium. It is filed as cell-based. The settings on record: 96 h, read-out: pIC50 PC-3M-Luc-C6 prostate cell (converted).
Experiment [6] deals with T1, hFASN enzyme (full length) (Homo sapiens, UniProt P49327).
T1 construct: 10 μL hFASN enzyme (full length, 300 ng, purified in house); made in house
T1 sequence (P49327 whole entry): as the sequence (P49327 whole entry, the tested form may be a part) above
The experiment can be described thus: Fatty Acid Synthase (FASN) inhibition scintillation proximity assay. It is filed as biochemical. To be noted: for inhibition at 10 µM: read-out: Human FASN % inhibition @ 10 μM, 10 μM test compound; for IC50: read-out: Human FASN pIC50 (converted). The essentials: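 Purified full-length hFASN (300 ng) converts ^3H-acetyl-CoA plus malonyl-CoA to ^3H-palmitate in 100 mM KH2PO4 pH 7.5, 1 mM DTT; compounds tested at 0.01–30 μM. Product captured on streptavidin imaging beads and read by LEADseeker at 610 nm after ≥24 h; 4-parameter logistic fit versus controls.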
(SPA uses beads or plates that emit light when radiolabelled molecules are held near them.)

A value given as a limit tells only on which side of the number the result lay.

For the molecule `Cn1cc(-c2ccc(-c3ccc(C4=NC5(CC5)C(=O)N4CC4CN(C(=O)C5(C)CC5)C4)c(F)c3)cc2)cn1` [compound 358, 5-(3-fluoro-4′-(1-methyl-1H-pyrazol-4-yl)-[1,1′-biphenyl]-4-yl)-6-((1-(1-methylcyclopropanecarbonyl)azetidin-3-yl)methyl)-4,6-diazaspiro[2.4]hept-4-en-7-one], the IC50 in the experiment with A2780 ovarian cells [1] was above 10000 nM; in experiment [2], 77.6 nM; in experiment [3] it was 51.3 nM; in the experiment on A2780 ovarian cells [4], 3.16 nM; in experiment [5], 14.8 nM; in experiment [6] it was 30.9 nM. Besides, in experiment [6], the inhibition at 10 µM turned out to be 100%.
In the case of `CC1(C(=O)N2CC(CN3C(=O)C4(CC4)N=C3c3ccc(-c4ccc5cc(F)ccc5c4)cc3F)C2)CC1` [compound 359, 5-(2-fluoro-4-(6-fluoronaphthalen-2-yl)phenyl)-6-((1-(1-methylcyclopropanecarbonyl)azetidin-3-yl)methyl)-4,6-diazaspiro[2.4]hept-4-en-7-one], the IC50 in the experiment with A2780 ovarian cells [1] is above 6170 nM; in experiment [2] it was around 79.4 nM; in experiment [3], 41.7 nM; in the experiment on A2780 ovarian cells [4] it was 8.13 nM; in experiment [5], 8.32 nM; in experiment [6], 39.8 nM. Also, in experiment [6], the inhibition at 10 µM was found to be 95%.
Consider `Cn1ncc2cc(-c3ccc(C4=NC5(CC5)C(=O)N4C[C@@H]4CCN(C(=O)C5(C)CC5)C4)c(F)c3)ccc21` [compound 361, (R)-5-(2-fluoro-4-(1-methyl-1H-indazol-5-yl)phenyl)-6-((1-(1-methylcyclopropanecarbonyl)pyrrolidin-3-yl)methyl)-4,6-diazaspiro[2.4]hept-4-en-7-one], for which the IC50 with A2780 ovarian cells [1] is above 10000 nM; in experiment [2], around 12.9 nM; in experiment [3] it was 45.7 nM; with A2780 ovarian cells [4], around 3.63 nM; in experiment [5], 3.24 nM; in experiment [6], 39.8 nM. Further, in experiment [6], the inhibition at 10 µM is 103%.
Take `Cn1nccc1-c1ccc(-c2ccc(C3=NC4(CC4)C(=O)N3C[C@@H]3CCN(C(=O)C4(C)CC4)C3)c(F)c2)cc1` [compound 362]: the IC50 is above 10000 nM in the experiment on A2780 ovarian cells [1]; around 295 nM in experiment [2]; 126 nM in experiment [3]; around 42.7 nM with A2780 ovarian cells [4]; around 56.2 nM in experiment [5]; 77.6 nM in experiment [6]. Also, the inhibition at 10 µM in experiment [6] stood at 96%.
Consider `O=C(N1CC(CN2C(=O)C3(CC3)N=C2c2ccc(-c3ccc4cc(F)ccc4c3)cc2F)C1)C1(O)CC1` [compound 365, 5-(2-fluoro-4-(6-fluoronaphthalen-2-yl)phenyl)-6-((1-(1-hydroxycyclopropanecarbonyl)azetidin-3-yl)methyl)-4,6-diazaspiro[2.4]hept-4-en-7-one], for which the IC50 in the experiment with A2780 ovarian cells [1] was around 10000 nM; in experiment [2], 56.2 nM; in experiment [3], 53.7 nM; in the experiment with A2780 ovarian cells [4], 6.46 nM; in experiment [5], 7.59 nM; in experiment [6], 23.4 nM. The inhibition at 10 µM in experiment [6] was found to be 97%.
Regarding `O=C(C1CC1)N1CC(CN2C(=O)C3(CC3)N=C2c2ccc(-c3ccc4ccccc4c3)cc2F)C1` [compound 368, 6-((1-(1-cyclopropanecarbonyl)azetidin-3-yl)methyl)-5-(2-fluoro-4-(naphthalen-2-yl)phenyl)-4,6-diazaspiro[2.4]hept-4-en-7-one], the IC50 was 4470 nM with A2780 ovarian cells [1]; 214 nM in experiment [2]; 58.9 nM in experiment [3]; 21.4 nM in the experiment with A2780 ovarian cells [4]; 28.8 nM in experiment [5]; 28.2 nM in experiment [6]. The inhibition at 10 µM in experiment [6] was 90%.
Consider `O=C(C1CCO1)N1CC(CN2C(=O)C3(CC3)N=C2c2ccc(-c3ccc4cc(F)ccc4c3)cc2F)C1` (stereo not drawn) [compound 369, 5-(2-fluoro-4-(6-fluoronaphthalen-2-yl)phenyl)-6-((1-(oxetan-2-carbonyl)azetidin-3-yl)methyl)-4,6-diazaspiro[2.4]hept-4-en-7-one], for which the IC50 was 2090 nM with A2780 ovarian cells [1]; 45.7 nM in experiment [2]; 37.2 nM in experiment [3]; 4.27 nM in the experiment on A2780 ovarian cells [4]; 10 nM in experiment [5]; 26.3 nM in experiment [6]. Besides, the inhibition at 10 µM in experiment [6] turned out to be 102%.
Regarding `Cn1ncc2cc(-c3ccc(C4=NC5(CC5)C(=O)N4C[C@@H]4CCN(C(=O)C5(O)CC5)C4)c(F)c3)ccc21` [compound 370, (R)-5-(2-fluoro-4-(1-methyl-1H-indazol-5-yl)phenyl)-6-((1-(1-hydroxycyclopropanecarbonyl)pyrrolidin-3-yl)methyl)-4,6-diazaspiro[2.4]hept-4-en-7-one], the IC50 was above 10000 nM in the experiment with A2780 ovarian cells [1]; 20.4 nM in experiment [2]; 40.7 nM in experiment [3]; around 2.4 nM with A2780 ovarian cells [4]; around 3.89 nM in experiment [5]; 28.8 nM in experiment [6]. Besides, the inhibition at 10 µM in experiment [6] worked out at 100%.
Regarding `Cn1nccc1-c1ccc(-c2ccc(C3=NC4(CC4)C(=O)N3C[C@@H]3CCN(C(=O)C4(O)CC4)C3)c(F)c2)cc1` [compound 371, (R)-5-(3-fluoro-4′-(1-methyl-1H-pyrazol-5-yl)-[1,1′-biphenyl]-4-yl)-6-((1-(1-hydroxycyclopropanecarbonyl)pyrrolidin-3-yl)methyl)-4,6-diazaspiro[2.4]hept-4-en-7-one], the IC50 is 8130 nM in the experiment on A2780 ovarian cells [1]; 490 nM in experiment [2]; 129 nM in experiment [3]; 72.4 nM in the experiment with A2780 ovarian cells [4]; 55 nM in experiment [5]; 56.2 nM in experiment [6]. Also, in experiment [6], the inhibition at 10 µM was found to be 101%.
Take `O=C(N1CC(CN2C(=O)C3(CC3)N=C2c2ccc(-c3ccc4ccccc4c3)cc2F)C1)C1(O)CC1` [compound 372, 5-(2-fluoro-4-(naphthalen-2-yl)phenyl)-6-((1-(1-hydroxycyclopropanecarbbonyl)azetidin-3-yl)methyl)-4,6-diazaspiro[2.4]hept-4-en-7-one]: the IC50 with A2780 ovarian cells [1] is above 10000 nM; in experiment [2] it was 75.9 nM; in experiment [3], 49 nM; in the experiment on A2780 ovarian cells [4] it was 5.01 nM; in experiment [5], 13.2 nM; in experiment [6], 16.2 nM. Further, the inhibition at 10 µM in experiment [6] worked out at 101%.
On to `O=C(N1CC(CN2C(=O)C3(CC3)N=C2c2ccc(-c3ccc4cccc(F)c4c3)cc2F)C1)C1(O)CC1` [compound 374, 5-(2-fluoro-4-(8-fluoronaphthalen-2-yl)phenyl)-6-((1-(1-hydroxycyclopropanecarbonyl)azetidin-3-yl)methyl)-4,6-diazaspiro[2.4]hept-4-en-7-one], for which the IC50 with A2780 ovarian cells [1] is above 10000 nM; in experiment [2], 87.1 nM; in experiment [3], 35.5 nM; in the experiment with A2780 ovarian cells [4], 10 nM; in experiment [5], 20.4 nM; in experiment [6], 25.7 nM. Moreover, the inhibition at 10 µM in experiment [6] is 99%.
Take `COc1cccc2ccc(-c3ccc(C4=NC5(CC5)C(=O)N4CC4CN(C(=O)C5(O)CC5)C4)c(F)c3)cc12` [compound 375, 5-(2-fluoro-4-(8-methoxynaphthalen-2-yl)phenyl)-6-((1-(1-hydroxycyclopropanecarbonyl)azetidin-3-yl)methyl)-4,6-diazaspiro[2.4]hept-4-en-7-one]: the IC50 with A2780 ovarian cells [1] is above 10000 nM; in experiment [2], 457 nM; in experiment [3], 89.1 nM; in the experiment on A2780 ovarian cells [4], 72.4 nM; in experiment [5], 77.6 nM; in experiment [6] it was 43.7 nM. Besides, the inhibition at 10 µM in experiment [6] was found to be 103%.
